Measured values as given in patent publication US8530521B2, “Nitrooxy cycloalkane derivatives” (Merck Sharp & Dohme Corp., priority 2008, dated 2013).

System: isolated rabbit thoracic aorta preparations
Experiment: Vessel relaxation in isolated rabbit thoracic aorta rings precontracted with noradrenaline
Details: for EC50: Oryctolagus cuniculus

EC50 [µM]	Compound	Max. Relaxation (concentration not given) [%]	Max. Relaxation (@ 1 μM) [%]
–	CC(=O)N[C@H](C(=O)O)C(C)(C)SN=O (racemic) [SNAP, S-nitroso-N-acetylpenicillamine, reference compound]	97.3	–
126	CO[C@H]1C[C@@H](C(=O)O)C[C@@H]1O[N+](=O)[O-] [Example 1, (+)-(1R,3S,4S)-3-methoxy-4-(nitrooxy)cyclopentanecarboxylic acid]	–	37.47
1 ± 0.2	COC(=O)[C@@H]1CC[C@H](OC)[C@@H](O[N+](=O)[O-])C1 [Example 21, (1R,3S,4S)-methyl 4-methoxy-3-(nitrooxy)cyclohexanecarboxylate]	–	–
6.3 ± 2	COC(=O)[C@@H]1CC[C@@H](O[N+](=O)[O-])[C@H](OC)C1 [Example 22, (1R,3R,4R)-methyl 3-methoxy-4-(nitrooxy)cyclohexanecarboxylate]	–	–
3.5 ± 0.6	COC(=O)[C@@H]1CC[C@H](O[N+](=O)[O-])[C@@H](OC)C1 [Example 23, (1R,3S,4S)-methyl 3-methoxy-4-(nitrooxy)cyclohexanecarboxylate]	–	–
11.1 ± 4.5	COC(=O)[C@@H]1CC[C@@H](OC)[C@H](O[N+](=O)[O-])C1 [Example 24, (1R,3R,4R)-methyl 4-methoxy-3-(nitrooxy)cyclohexanecarboxylate]	–	–
